{"source": "patent US10513500B2", "about": "“Crystalline forms of Lesinurad” (Apotex Inc., priority 2016, dated 2019)", "key": {"[1]": {"conditions": "certain aqueous conditions, compared with Form 1; cited from earlier work"}, "[2]": {"test": "PXRD study of crystal form stability on storage", "type": "physicochemical", "method": "Lesinurad Form APO-I can be characterized by a PXRD diffractogram comprising, among other peaks, characteristic peaks, expressed in degrees 2θ (±0.2°), at 7.8°, 15.1° and 27.0°. Preferably, the PXRD diffractogram further comprises at least three peaks, expressed in degrees 2θ (±0.2°), selected from the group consisting of: 14.5°, 15.6°, 16.4°, 17.6°, 18.5°, 19.9°, 22.1°, 23.5°, 25.9° and 29.3°. More preferably, the PXRD diffractogram further comprises peaks, expressed in degrees 2θ (±0.2°), at 14.5°, 15.6°, 16.4°, 17.6°, 18.5°, 19.9°, 22.1°, 23.5°, 25.9° and 29.3°. PXRD studies of a capped sample of Lesinurad Form APO-I have shown that this crystal form is stable following storage in a stability chamber maintained at 27° C./60% RH for 17 days.\nLesinurad Form APO-II can be characterized by a PXRD diffractogram comprising, among other peaks, characteristic peaks, expressed in degrees 2θ (±0.2°), at 7.9°, 15.2°, 16.5° and 25.4°. Preferably, the PXRD diffractogram further comprises at least two peaks, expressed in degrees 2θ (±0.2°), selected from the group consisting of: 14.4°, 15.7°, 17.7°, 18.4°, 22.1°, 22.8°, 23.5°, 26.5°, 28.8° and 29.3°. More preferably, the PXRD diffractogram further comprises peaks, expressed in degrees 2θ (±0.2°), at 14.4°, 15.7°, 17.7°, 18.4°, 22.1°, 22.8°, 23.5°, 26.5°, 28.8° and 29.3°. PXRD studies of a capped sample of Lesinurad Form APO-II have shown that this crystal form is stable following storage at room temperature and ambient humidity for 28 days.\nLesinurad Form APO-III can be characterized by a PXRD diffractogram comprising, among other peaks, characteristic peaks, expressed in degrees 2θ (±0.2°), at 6.2° and 19.9°. Preferably, the PXRD diffractogram further comprises at least four peaks, expressed in degrees 2θ (±0.2°), selected from the group consisting of: 7.6, 10.3°, 14.1°, 15.3°, 17.8°, 21.1°, 23.4°, 25.7° and 27.2°. More preferably, the PXRD diffractogram further comprises peaks, expressed in degrees 2θ (±0.2°), at 7.6°, 10.3°, 14.1°, 15.3°, 17.8°, 21.1°, 23.4°, 25.7° and 27.2°. PXRD studies of capped and uncapped samples of Lesinurad Form APO-III have shown that this crystal form is stable following storage in stability chambers maintained at 27° C./60% RH and 40° C./75% RH for 18 days.\nData were acquired on a PANanalytical X-Pert Pro MPD diffractometer with fixed divergence slits and an X'Celerator RTMS detector. The diffractometer was configured in Bragg-Brentano geometry; data was collected over a 2-theta range of 3° to 40° using CuKα radiation at a power of 40 mA and 45 kV. […] was removed using a divergent beam nickel filter. A step size of 0.017° was used. Samples were rotated to reduce preferred orientation effects. Samples were lightly ground prior to analysis. […]"}, "[3]": {"test": "Stability study under stress conditions (impurities, area %)", "type": "physicochemical", "conditions": "for Major Unidentified Impurity: RRT in brackets", "method": "(§1) The stability of Lesinurad Form APO-III was assessed under various stress conditions as outlined in Table 5."}, "[4]": {"test": "Hygroscopicity on storage in humid, high temperature environment", "type": "physicochemical", "conditions": "stress conditions of Table 5 (open sample, 40° C./75% RH, 21 days)", "method": "as §1\nThe title solid form of Lesinurad was prepared according to the procedure in Example 14 of WO 2015/095703 A1. A suspension of Lesinurad (1 g) in ethyl acetate (63 mL) was sonicated at room temperature for 30 minutes in order to achieve dissolution. Proline (570 mg) was added to the solution, and the resulting suspension was stirred at room temperature for 26 hours, at which time the suspension was isolated by filtration to afford a solid (872.9 mg, 68% yield) having a PXRD diffractogram consistent with FIG. 22 in WO 2015/095703 A1. […]"}, "[5]": {"conditions": "primary amine group; cited from earlier work"}, "[6]": {"conditions": "dry heat, heat/humidity and light exposure"}, "[7]": {"conditions": "light exposure 200 W·hr/m^2 UV + 1.2M LUX hr fluorescent"}, "[8]": {"conditions": "open sample, dry heat, solid state, 60° C./ambient RH, 21 days"}, "[9]": {"conditions": "open sample, heat/humidity, solid state, 40° C./75% RH, 21 days"}, "[10]": {"conditions": "sample wrapped in foil (control), light exposure 200 W·hr/m^2 UV + 1.2M LUX hr fluorescent"}}, "note": "Entries after “also recorded” stand apart in the source; their conditions may differ.", "data": [{"smiles": "O=C(O)CSc1nnc(Br)n1-c1ccc(C2CC2)c2ccccc12", "note": "[Form 2, Lesinurad]", "values": [{"measurement": "solubility", "setting": "[1]", "value": "lower solubility than Form 1"}]}, {"smiles": "O=C(O)CSc1nnc(Br)n1-c1ccc(C2CC2)c2ccccc12", "note": "[Lesinurad Form APO-I, Lesinurad]", "values": [{"measurement": "crystal form stability by PXRD", "setting": "[2]; capped sample, stability chamber 27° C./60% RH, 17 days", "value": "stable; also recorded: no change"}]}, {"smiles": "O=C(O)CSc1nnc(Br)n1-c1ccc(C2CC2)c2ccccc12", "note": "[Lesinurad Form APO-II, Lesinurad]", "values": [{"measurement": "crystal form stability by PXRD", "setting": "[2]; capped sample, room temperature and ambient humidity, 28 days", "value": "no change; also recorded: stable"}]}, {"smiles": "O=C(O)CSc1nnc(Br)n1-c1ccc(C2CC2)c2ccccc12", "note": "[Lesinurad Form APO-III, Lesinurad]", "values": [{"measurement": "crystal form stability by PXRD", "setting": "[2]; capped and uncapped samples, 27° C./60% RH, 18 days", "value": "no change; also recorded: stable"}, {"measurement": "crystal form stability by PXRD", "setting": "[2]; capped and uncapped samples, 40° C./75% RH, 18 days", "value": "no change; also recorded: stable"}, {"measurement": "Total Identified Impurity", "setting": "[3]; Non-stressed sample", "value": 0.09, "unit": "area %"}, {"measurement": "Total Impurities", "setting": "[3]; Non-stressed sample", "value": 0.33, "unit": "area %"}, {"measurement": "Total Unidentified Impurity", "setting": "[3]; Non-stressed sample", "value": 0.24, "unit": "area %"}, {"measurement": "Major Unidentified Impurity", "setting": "[3]; Non-stressed sample", "value": "0.08 (0.91) area %"}, {"measurement": "loss of Lesinurad", "setting": "[3]; [6]", "value": "no significant loss"}, {"measurement": "stability to stress conditions", "setting": "[3]; [6]", "value": "good stability"}, {"measurement": "total degradation", "setting": "[3]; dry heat, heat/humidity and light exposure (Table 5)", "value": "less than 0.10%"}, {"measurement": "chemical and physical stability", "setting": "[3]; humid and high temperature environment", "value": "chemically and physically stable"}, {"measurement": "Total Identified Impurity", "setting": "[3]; [7]", "value": 0.10, "unit": "area %"}, {"measurement": "Total Impurities", "setting": "[3]; [7]", "value": 0.46, "unit": "area %"}, {"measurement": "Total Unidentified Impurity", "setting": "[3]; [7]", "value": 0.35, "unit": "area %"}, {"measurement": "Major Unidentified Impurity", "setting": "[3]; [7]", "value": "0.09 (0.92) area %"}, {"measurement": "Total Identified Impurity", "setting": "[3]; [8]", "value": 0.10, "unit": "area %"}, {"measurement": "Total Impurities", "setting": "[3]; [8]", "value": 0.40, "unit": "area %"}, {"measurement": "Total Unidentified Impurity", "setting": "[3]; [8]", "value": 0.30, "unit": "area %"}, {"measurement": "Major Unidentified Impurity", "setting": "[3]; [8]", "value": "0.09 (0.91) area %"}, {"measurement": "Total Identified Impurity", "setting": "[3]; [9]", "value": 0.09, "unit": "area %"}, {"measurement": "Total Impurities", "setting": "[3]; [9]", "value": 0.38, "unit": "area %"}, {"measurement": "Total Unidentified Impurity", "setting": "[3]; [9]", "value": 0.29, "unit": "area %"}, {"measurement": "Major Unidentified Impurity", "setting": "[3]; [9]", "value": "0.09 (0.91) area %"}, {"measurement": "Total Identified Impurity", "setting": "[3]; [10]", "value": 0.10, "unit": "area %"}, {"measurement": "Total Impurities", "setting": "[3]; [10]", "value": 0.42, "unit": "area %"}, {"measurement": "Total Unidentified Impurity", "setting": "[3]; [10]", "value": 0.32, "unit": "area %"}, {"measurement": "Major Unidentified Impurity", "setting": "[3]; [10]", "value": "0.09 (0.92) area %"}, {"measurement": "hygroscopicity", "setting": "[4]", "value": "did not exhibit signs of hygroscopicity"}]}, {"smiles": "O=C(O)[C@@H]1CCCN1", "note": "[Proline]", "values": [{"measurement": "pKa", "setting": "[5]", "value": "approximately 10.6"}]}]}
